The text below walks through data of ChEMBL document CHEMBL1138532, “Global challenge of multidrug-resistant Acinetobacter baumannii” (Antimicrob Agents Chemother, 2007).

Data set [1] is filed under the species Homo sapiens. Put plainly: […] in carbapenem-resistant Acinetobacter baumannii infected human assessed as incidence of acute renal failure. The data set is classed as toxicity, organism-based. Conditions: in vivo.
Data set [2] relates to Acinetobacter baumannii. Put plainly: Antimicrobial activity against drug-resistant Acinetobacter baumannii producing PER1 beta-lactamase. The data set is classed as functional.
Data set [3] has as its system Acinetobacter baumannii. The data set is described as follows: Antimicrobial activity against Acinetobacter baumannii isolates by E-test. It counts as functional, organism-based.
The test system of data set [4] is Acinetobacter baumannii. The data set is described as follows: Antimicrobial activity against carbapenem-resistant Acinetobacter baumannii expressing ISAba3. It counts as functional.
In data set [5] the test system is Acinetobacter baumannii. Put plainly: Antimicrobial activity against carbapenem-resistant Acinetobacter baumannii expressing ISAba1. It counts as functional.
In data set [6] the test system is Acinetobacter baumannii. The data set is described as follows: Antimicrobial activity against Acinetobacter baumannii isolate producing IMP-4 beta-lactamase by agar dilution method. It counts as functional. (In general: Agar dilution tests growth on a series of plates holding different concentrations.)
Data set [7] deals with Acinetobacter baumannii. Put plainly: Antimicrobial activity against Acinetobacter baumannii isolate producing metallo beta-lactamase by agar dilution method. The data set is classed as functional.
Data set [8] deals with Acinetobacter baumannii. The data set is described as follows: Antimicrobial activity against Acinetobacter baumannii isolate producing OXA-23 beta-lactamase by agar dilution method. It counts as functional.

Converted amounts (≈) assume the structure as drawn.

On to COLISTIN [listing 1 of 2 here], for which, in data set [1], the Activity is 14%.

What is called MIC is the smallest concentration in the dilution series that meets the test's criterion for growth inhibition. High values mean a need for much substance, low ones inhibition by little substance. With `CC(C)(O/N=C(\C(=O)N[C@@H]1C(=O)N2C(C(=O)[O-])=C(C[n+]3ccccc3)CS[C@H]12)c1csc(N)n1)C(=O)O` [CEFTAZIDIME], the MIC in data set [2] was found to be 256 µg/mL (≈ 468 µM).

COLISTIN [listing 2 of 2 here] displayed an MIC in data set [3] of 1 µg/mL.

Turning to `C[C@@H](O)[C@H]1C(=O)N2C(C(=O)O)=C(SCCNC=N)C[C@H]12` [IMIPENEM ANHYDROUS], the MIC in data set [4] and in data set [5] was not below 32 µg/mL throughout.

In the case of `CO/N=C(\C(=O)N[C@@H]1C(=O)N2C(C(=O)[O-])=C(C[N+]3(C)CCCC3)CS[C@H]12)c1csc(N)n1` [CEFEPIME], the lowest concentration to inhibit growth in data set [2] (MIC) was 32 µg/mL (≈ 66.6 µM).

As usually defined, the MIC50 is an inhibitory concentration at the 50% level, which refers to growth in some studies and to a panel of isolates in others. Low values mean higher susceptibility, high ones lower susceptibility. Usually MIC90 stands for the lowest concentration that inhibits either 90% of growth or 90% of the strains tested, depending on the study. Higher therefore signals weaker potency. On to `C[C@@H](O)[C@H]1C(=O)N2C(C(=O)O)=C(S[C@@H]3CN[C@H](CNS(N)(=O)=O)C3)[C@H](C)[C@H]12` [DORIPENEM], for which, in data set [6], the MIC is not above 4 µg/mL, the MIC50 was 0.5 µg/mL (≈ 1.19 µM) and the MIC90 is 16 µg/mL (≈ 38 µM). In data set [7], the MIC is not above 4 µg/mL, the MIC50 came to 0.5 µg/mL (≈ 1.19 µM) and the MIC90 came to 16 µg/mL (≈ 38 µM). In data set [8], this compound had an MIC not above 4 µg/mL, an MIC50 of 0.5 µg/mL (≈ 1.19 µM) and an MIC90 of 16 µg/mL (≈ 38 µM).

Turning to `C[C@@H](O)[C@H]1C(=O)N2C(C(=O)O)=C(S[C@@H]3CN[C@H](C(=O)N(C)C)C3)[C@H](C)[C@H]12` [MEROPENEM], the MIC in data set [4] and in data set [5] was not below 32 µg/mL in each case.
